These results are taken from patent US20090048203A1, “SUBSTITUTED ADENINES AND THE USES THEREOF” (priority 2004, published 2009).

Values after ≈ are worked out from the molar mass of the structure shown.

The IC50 is the concentration needed to halve the response being measured.

For one assay, the target named is S. pneumoniae LigA (Streptococcus pneumoniae serotype 4, UniProt Q97QT2). Nature of the assay: DNA ligase inhibition, FRET detection assay. Format: biochemical. Conditions: ten compound concentrations; read-out: IC50 (μM) against S. pneumoniae LigA. As to the method: Compounds were tested for inhibition of DNA ligase using a Fluorescence Resonance Energy Transfer (FRET) detection assay as previously described (Chen et al. 2002. Analytical Biochemistry 309: 232-240; Benson et al. 2004. Analytical Biochemistry 324:298-300). Assays were performed in 384-well polystyrene flat-bottom black plates in 30 μl reactions containing 3 μl compound dissolved in dimethylsulfoxide, 20 μl 1.5× Enzyme Working Solution (25% glycerol, 45 mM potassium chloride, 45 mM ammonium sulfate, 15 mM dithiothreitol, 1.5 mM ethylenediaminetetraacetic acid (EDTA), 0.003% Brij 35, 75 mM MOPS pH 7.5, 150 nM bovine serum albumin, 1.5 μM NAD^+, 60 nM DNA substrate, 0.375 nM enzyme in water) and 7 μl […] magnesium chlorine solution (96 mM magnesium chloride, 20% glycerol in water) to initiate the reaction. The DNA substrate is similar to that described in Benson et al. (2004. Analytical Biochemistry 324:298-300). The assay reactions were incubated at room temperature for approximately 20 minutes before being terminated by the addition of 30 μl Quench reagent (8 M Urea, 1 M Trizma base, 20 mM EDTA in water). Plates were read in a Tecan Ultra plate reader at two separate wavelengths—Read 1: excitation 485, emission 535, Read 2: excitation 485, emission 595. Data is initially expressed as a ratio of the 595/535 emission values and percent inhibition values were calculated using […] dimethylsulfoxide (no compound) as the 0% inhibition and EDTA-containing (50 mM) reactions as 100% inhibition controls. Compound potency was based on IC50 measurements determined from reactions performed in the presence of ten different compound concentrations.
Sequence of S. pneumoniae LigA (Q97QT2 whole entry): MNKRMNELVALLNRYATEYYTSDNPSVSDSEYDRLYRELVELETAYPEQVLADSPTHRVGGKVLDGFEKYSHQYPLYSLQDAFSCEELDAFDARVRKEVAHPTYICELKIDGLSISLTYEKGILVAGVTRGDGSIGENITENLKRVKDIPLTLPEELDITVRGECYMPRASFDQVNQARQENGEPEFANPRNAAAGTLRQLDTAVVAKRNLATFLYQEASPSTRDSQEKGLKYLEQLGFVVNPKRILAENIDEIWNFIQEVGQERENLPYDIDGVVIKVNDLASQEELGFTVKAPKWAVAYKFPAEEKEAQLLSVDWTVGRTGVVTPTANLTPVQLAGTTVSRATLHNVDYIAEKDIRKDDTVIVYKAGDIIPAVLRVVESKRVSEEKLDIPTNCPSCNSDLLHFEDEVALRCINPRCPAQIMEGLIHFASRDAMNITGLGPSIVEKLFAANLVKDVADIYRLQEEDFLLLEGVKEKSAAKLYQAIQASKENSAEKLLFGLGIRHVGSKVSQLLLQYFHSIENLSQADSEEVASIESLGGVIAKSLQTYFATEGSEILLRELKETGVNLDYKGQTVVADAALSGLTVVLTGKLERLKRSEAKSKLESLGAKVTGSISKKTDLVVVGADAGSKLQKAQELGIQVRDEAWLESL
As to `Nc1nc(SCc2ccco2)nc2c1ncn2C1CCCO1` (stereo not shown) [Example 6, 2-[(2-furylmethyl)thio]-9-(tetrahydrofuran-2-yl)-9H-purin-6-amine], the IC50 was 1.8 µM.
In the case of `Nc1nc(OCc2ccccc2)nc2c1ncn2C1CCCO1` (stereo not shown) [Example 25, 2-(benzyloxy)-9-(tetrahydrofuran-2-yl)-9H-purin-6-amine], the IC50 stood at 4 µM.
Take `Nc1nc(OC2CCCC2)nc2c1ncn2C1OCCC1N` (stereo not shown) [Example 128, 9-(3-aminotetrahydrofuran-2-yl)-2-(cyclopentyloxy)-9H-purin-6-amine]: the IC50 is 0.7 µM.
As for `Nc1nc(OCC2CCCC2)nc2c1ncn2[C@@H]1O[C@H](CO)[C@@H](O)[C@H]1O` [Example 172, 2-(Cyclopentyl)methoxy-9-β-D-ribofuranosyl-9H-purine-6-amine], the IC50 came to 0.145 µM.
For the compound `C=C[C@H]1O[C@@H](n2cnc3c(N)nc(OC4CCCC4)nc32)[C@H](O)[C@@H]1O` [Example 259, 2-(cyclopentyloxy)-9-(5,6-dideoxy-β-D-ribo-hex-5-enofuranosyl)-9H-purin-6-amine], the IC50 came to 0.5 µM.

The next assay deals with S. pneumoniae. Nature of the assay: Bacterial susceptibility testing, microbroth dilution (MIC). Format: cell-based. Conditions: Streptococcus pneumoniae; lowest drug concentration able to reduce growth by 80% or more; read-out: MIC (μg/ml) against S. pneumoniae. As to the method: Compounds were tested for antimicrobial activity by susceptibility testing using microbroth dilution methods recommended by NCCLS. Compounds were dissolved in dimethylsulfoxide and tested in 10 doubling dilutions in the susceptibility assays such that the final dimethylsulfoxide concentration in the assay was 2% (v/v). The organisms used in the assay were grown overnight on appropriate agar media and then suspended in the NCCLS-recommended liquid susceptibility-testing media. The turbidity of each suspension was adjusted to be equal to a 0.5 McFarland standard, a further 1-in-10 dilution was made into the same liquid medium to prepare the final organism suspension, and 100 μL of this suspension was added to each well of a microtiter plate containing compound dissolved in 2 μL of dimethylsulfoxide. Plates were incubated under appropriate conditions of atmosphere and temperature and for times according to NCCLS standard methods prior to being read. The Minimum Inhibitory Concentration (MIC) was determined as the lowest drug concentration able to reduce growth by 80% or more.
In general terms: Broth dilution looks for growth in wells or tubes with falling amounts of substance.
As for `Nc1nc(OC2CCCCC2)nc2c1ncn2C1CCCO1` (stereo not shown) [Example 27, 2-(cyclohexyloxy)-9-(tetrahydrofuran-2-yl)-9H-purin-6-amine], the MIC amounted to 8 µg/mL (≈ 26.4 µM).
On to `Nc1nc(OC2CCC3CCCCC3C2)nc2c1ncn2C1CCCO1` (stereo not shown) [Example 62, 2-(decahydronaphthalen-2-yloxy)-9-(tetrahydrofuran-2-yl)-9H-purin-6-amine], for which the MIC was determined as 4 µg/mL (≈ 11.2 µM).
Turning to `Nc1nc(OC2CCCC2)nc2c1ncn2[C@@H]1O[C@H](COCCO)[C@@H](O)[C@H]1O` [Example 129, 2-(cyclopentyloxy)-9-[5-O-(2-hydroxyethyl)-β-D-ribofuranosyl]-9H-purin-6-amine], the MIC amounted to 8 µg/mL (≈ 20.2 µM).
The same measure, in the same setting: then `Nc1nc(OCC2CCCC2)nc2c1ncn2[C@@H]1O[C@H](CO)[C@@H](O)[C@H]1O` [Example 172, 2-(Cyclopentyl)methoxy-9-β-D-ribofuranosyl-9H-purine-6-amine], with 2 µg/mL (≈ 5.47 µM); and `COc1cccc(CO[C@H]2[C@@H](O)[C@H](n3cnc4c(N)nc(OC5CCCC5)nc43)O[C@@H]2C)c1` [Example 356], with 4 µg/mL (≈ 8.78 µM).
